Bounds are passed on as bounds.

The test system of experiment [1] is human lung cancer cells. Put plainly: Colony formation test in combination with radiation. It is filed as cell-based. Particulars: for sensitizer enhancement ratio (SER): in combination with radiation. The method, then:
(§1) Colony formation tests were carried out in human lung cancer cells, breast cancer cells, and uterine cervical cancer cells as follows:
(§2) Respective sphingosine, phytosphingosine, C6PS, and C8PS were dissolved ethanol to produce specimens. About 600 cells (for each cancer) were plated in a dish with a diameter of 60 mm and incubated in a CO2 incubator at 37° C. for a day. Then, the cancer cells were treated with the specimens in combination with radiation and were continuously cultured. When suitable colonies were formed, the cancer cells were fixed with a fixing solution (methanol/acetic acid=3:1) and stained with trypan blue. Then, the number of the colonies was counted and the results were evaluated in a comparative manner.

The test system of experiment [2] is human lung cancer cells (NCI-H460). Put plainly: Apoptosis test (Sub G1, propidium iodide, flow cytometry). It is filed as cell-based. As to conditions: 5 μg/ml, culture time of 48 hours, FIG. 2. The method, then:
Cancer cells as used in the experiment were human lung cancer cells (NCI-H460, Korean Cell Line Bank), human breast cancer cells (MDA-MB-231, American Type Culture Collection (ATCC)), human uterine cervical cancer cells (HeLa, Korean Cell Line Bank), and blood cancer cells (Jurkat, ATCC). These cancer cells were cultured in RPMI 1640 media containing 10% FBS, penicillin, and streptomycin (GIBCO BRL).
The apoptosis tests were carried out at human lung cancer cells, breast cancer cells, uterine cervical cancer cells, and blood cancer cells as follows:
Phytosphingosine or a derivative thereof was dissolved in DMSO. Samples of the resultant solution of different concentration levels (1, 2, 5, 10, 15, 20 μg/ml) were prepared. According to the following treatment schedule, phytosphingosine treated cancer cells were cultured, washed with PBS (phosphate buffered saline), and fixed with 70% ethanol. The fixed cells were again washed with PBS, suspended in PBS, and 1 mg/ml of RNase was added thereto. Then, DNA was stained with 50 μg/ml of propidium iodide fluorescent dye and the change in the Sub G1 was analyzed by flow cytometry (Becton DICKINSON). The Sub G1, a marker of apoptotic cell death, means DNA distribution lower than that in the G1 phase of cell cycle.
(1-1) In order to determine an anticancer effect of phytosphingosine, 5 ml of 10 μg/ml of phytosphingosine was added to respective dishes containing lung cancer cells, breast cancer cells, uterine cervical cancer cells, and blood cancer cells.
(1-2) In order to examine a correlation of an anticancer effect with the phytosphingosine concentration and post-treatment culture time, each 5 ml of 2, 5, 10, and 15 μg/ml of phytosphingosine was added to respective human uterine cervical cancer cell-containing dishes and human breast cancer cell-containing dishes. In addition, each 5 ml of 5, 10, 15, and 20 μg/ml of phytosphingosine was added to respective human lung cancer cell-containing dishes, and each 5 ml of 1, 5, 10, and 20 μg/ml of phytosphingosine was added to respective human blood cancer cell-containing dishes.
(1-3) An anticancer effect of phytosphingosine derivatives was determined in the same manner as mentioned in (1-1) and (1-2) except using 5 μg/ml of C4PS, C6PS, C8PS, and C12PS.
For orientation: A flow cytometer gives signals particle by particle.

Experiment [3] has as its system human breast cancer cells. In words: Apoptosis test with or without radiation. In kind it is cell-based. As to conditions: 5 μg/ml in combination with radiation, FIG. 17. Here is the method: (§3) (1) Each 5 ml of 20 μg/ml of phytosphingosine and derivatives thereof were added to human lung cancer cell-containing dishes. Some cells were cultured without radiation and others were cultured with radiation with dose of 4 Gy. This apoptosis test was carried out in the same manner in the Experiment 1. Specimens used in this apoptosis test are as follows:
(§4) Control (Cont), IR, PS, PS+IR, C4PS, C4PS+IR, C6PS, C6PS+IR, C8PS, C8PS+IR, C12PS, C12PS+IR.
(§5) (2) Apoptosis tests for human blood cancer cells, uterine cervical cancer cells, and breast cancer cells were carried out in the same manner as in the above (1) except using 5 μg/ml of phytosphingosine and derivatives thereof.

The subject of experiment [4] is human uterine cervical cancer cells. Put plainly: Apoptosis test with or without radiation. In kind it is cell-based. Particulars: 5 μg/ml in combination with radiation, FIG. 17. The method, then: as §3, §4, §5
Experiment [5] has the same test system. In words: In vivo animal test, tumor size with radiotherapy. As to conditions: for tumor size, compound alone treated group: after 7 days (rapidly increased until 7 days after the treatment); for tumor size, radiation and compound concurrent treated group: as a function of days; for tumor size, concurrent treatment vs radiation or compound alone: with radiation, FIGS. 24 and 25. Set-up: species or system nude mice. Here is the method:
(§6) Nude mice (body weight: about 20 g) were randomized into 4 groups and the femoral region of the nude mice transplanted with human lung cancer cells. Then, tumor volume was allowed to reach a level of […]. One group had untreated cells as a control and a second group had radiation (dose of 20 Gy)-treated cells. A third group was orally administered with 50 mg/kg of an olive oil for one week on a daily basis, followed by radiotherapy (dose of 20 Gy). A fourth group was orally administered with a 50 mg/kg solution of phytosphingosine in an olive oil for one week on a daily basis, followed by radiotherapy (dose of 20 Gy). Tumor volume was measured at intervals of 3 days for 40 days. […] In case of a C8PS alone treated group, the tumor size increased until 10 days after the treatment. […] Meanwhile, tumor growth was suspended at a certain point of time after C8PS alone treatment. It can be seen from this fact that C8PS is useful by itself as an anticancer agent for inhibiting tumor growth.
The animal tests were carried out using nude mice of which the femoral regions were transplanted with human uterine cervical cancer cells in the same manner as the aforementioned animal test using C8PS.

Experiment [6] deals with human lung cancer cells. In words: Apoptosis test with or without radiation (4 Gy). It is filed as cell-based. Particulars: 20 μg/ml, FIG. 13. Here is the method: as §3, §4
Experiment [7] deals with human lung cancer cells. In words: DAPI staining (percentage of apoptotic cells). It is filed as cell-based. As to conditions: 20 μg/ml C8PS with radiation. Here is the method: (§7) Human lung cancer cells were cultured in the same manner as in Experiment 1 and injected with 5 ml of 20 μg/ml of C8PS. Then, the DAPI staining and DNA fragmentation were carried out.
DAPI staining protocol was as follows:
First, a control cell group, a radiation-treated cell group, a C8PS-treated cell group, and a C8PS and radiation concurrent treated cell group were fixed with 4% paraformaldehyde at room temperature for 30 minutes and washed with PBS. 50 ng/ml of a DAPI solution was added to the fixed cell groups and incubated for 30 minutes. Then, the cell groups were again washed with PBS and examined with a fluorescent microscope. Cellular apoptosis is characterized by condensation and fragmentation of cell nuclei. Based on this fact, apoptotic cells were counted in each group. Then, the number of apoptotic cells was divided by the number of total cells to derive the percentage of apoptotic cells in each group.

The subject of experiment [8] is human lung cancer cells. Put plainly: DNA fragmentation (agarose gel electrophoresis). Particulars: 20 μg/ml C8PS with radiation, FIG. 20. It is filed as cell-based. Here is the method: as §7
DNA fragmentation was carried out as follows:
C8PS-treated human lung cancer cells were dissolved in a lysis buffer (20 mM Tris/HCl, pH 8.0, 0.1 mM EDTA, 1% SDS and 0.5 mg/ml proteinase K) and treated with a mixture of phenol, chloroform, and isoamylalcohol (phenol/chloroform/isoamylalcohol=25:24:1) to thereby give a chromosomal DNA extract. The chromosomal DNA extract was subjected to 1% agarose gel electrophoresis and the resulting DNA fragments were visualized under an UV light.

Experiment [9] deals with human lung cancer cells. Put plainly: In vivo animal test, tumor volume with radiotherapy (20 Gy). The arrangement: species or system nude mice. The method, then: as §6
Experiment [10] has as its system human breast cancer cells. In words: Colony formation test in combination with radiation. As to conditions: FIG. 18. In kind it is cell-based. Here is the method:
as §1, §2

Experiment [11] has as its system human uterine cervical cancer cells. Described as above. In kind it is cell-based. As to conditions: FIG. 18. The method, then:
as §1, §2

Turning to `CCCCCCCCCCCCC/C=C/[C@@H](O)[C@@H](N)CO` [sphingosine], in experiment [1] (FIG. 12), the “sensitizer enhancement ratio (SER)” value was 1.10.
`CCCCCCCCCCCCCC[C@@H](O)[C@@H](O)[C@H](CO)NC(=O)CCC` [C4PS, N-butanoyl phytosphingosine]: the apoptotic rate in experiment [2] was roughly 100%. The “enhancement of radiosensitizing effect” value in experiment [3] is on record as “excellent”. In experiment [4], the “enhancement of radiosensitizing effect” value is “excellent”. Moreover, in [5], the “tumor size, compound alone treated group” value is recorded as “slowly increased”; the “tumor size, radiation and compound concurrent treated group” value was “showed little changes”; the “tumor size, concurrent treatment vs radiation or compound alone” value is listed as “significant reduction in tumor size”.
Take `CCCCCCCCCCCCCC[C@@H](O)[C@@H](O)[C@H](CO)NC(=O)CCCCCCC` [C8PS, N-octanoyl phytosphingosine]: in [1] (FIG. 12), the radiosensitivity result was “excellent radiosensitivity” and the “sensitizer enhancement ratio (SER)” value was 2. The “increase of radiosensitivity relative to Taxol” value in experiment [1] (at LD50 of human lung cancer cells, FIG. 14B) is no less than 20%. In addition, the “increase of apoptotic rate, concurrent treatment vs radiation alone” value in experiment [1] (radiation at LD50 (number of colonies reduced to 50% by radiation alone), FIG. 14A) is listed as “about 30%”. Besides, the “apoptotic effect of concurrent application with radiation” value in experiment [6] was “excellent apoptotic effect”. Besides, in experiment [7] (FIG. 19), the “apoptotic rate, concurrent treatment vs radiation or C8PS alone” value is “higher apoptotic rate”. Besides, the “increase of apoptotic rate, concurrent treatment vs radiation or C8PS alone” value in [7] (as a function of time, FIG. 21) is recorded as no less than 20%. Besides, the “chromosomal DNA fragmentation, concurrent treatment vs radiation or C8PS alone” value in [8] is recorded as “remarkably increased”. Further, the “tumor volume, concurrent treatment vs radiation or C8PS alone” value in [9] (50 mg/kg oral daily for one week then radiotherapy 20 Gy, FIG. 22) is given as “significantly reduced”. Besides, in experiment [9] (50 mg/kg oral daily for one week then radiotherapy 20 Gy, FIG. 23), the “size of initial tumor, radiation and C8PS concurrent treated group” value is on record as “maintained or reduced”. Besides, in experiment [9] (after the 10th day after treatment (increased until 10 days), FIG. 23), the “tumor size, C8PS alone treated group” value is reported as “showed little changed”.
`CCCCCCCCCCCCCC[C@@H](O)[C@@H](O)[C@H](CO)NC(=O)CCCCC` [C6PS, N-hexanoyl phytosphingosine]: the apoptotic rate in [2] is reported as roughly 100%. For the same molecule, the “sensitizer enhancement ratio (SER)” value in experiment [10] is 2.40; in experiment [1] (FIG. 12), 1.6; in experiment [11] it was 2.67. Further, the “enhancement of radiosensitizing effect” value in experiment [3] and in experiment [4] was “excellent” in each case. Further, the “tumor size, compound alone treated group” value in experiment [5] is “slowly increased”. For the same molecule, the “tumor size, radiation and compound concurrent treated group” value in experiment [5] was “showed little changes”. Also, the “tumor size, concurrent treatment vs radiation or compound alone” value in [5] was “significant reduction in tumor size”.

Values taken from patent US20090176888A1, “COMPOSITION COMPRISING PHYTOSPHINGOSINE OR DERIVATIVE THEREOF” (KOREA INSTITUTE OF RADIOLOGICAL & MEDICAL SCIENCES, priority 2003, published 2009).
